biological target: T1, human Nav1.1 (Homo sapiens, UniProt P35498); assay: Amplification of Nav1.1-derived voltage-gated sodium current (Nav1.1 current), automated patch clamp (Test 1); type: cell-based; conditions: Concentration for evaluation 1 μM; HEK293 cell line stably expressing human Nav1.1
T1 construct: host or cells: HEK293
Method in brief: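 Compound-induced change in ramp-evoked sodium current peak and AUC was expressed as 100×post/pre ratio minus 100. Recordings used automated patch clamp in voltage-clamp mode on a stable human Nav1.1 HEK293 line, including only cells above 500 pA. Compounds were delivered in extracellular fluid containing 1% DMSO.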

Row | SMILES | Nav1.1 current amplification rate (%)
1 | CC1CCN(c2cnc3cnn(CC(=O)Nc4ccc5cncnc5c4)c3n2)CC1 [Example 642] | 252
2 | O=C(Cn1ncc2cnc(N3CCC4(CC4)C(F)(F)C3)nc21)Nc1ccn2ncnc2c1 [Example 792] | 161
3 | CC1CC=C(c2ccc(=O)n(CC(=O)N3CCc4c3ccnc4N3CCOCC3)n2)CC1 (stereo not drawn) [Example 319] | 134
4 | Cc1nc2cc(NC(=O)Cn3ncc4ncc(N(C)C5CCCC5)nc43)cnc2s1 [Example 676] | 36
5 | CC1CC=C(c2ccc(=O)n(CC(=O)Nc3ccn4nncc4c3)n2)CC1 (stereo not drawn) [Example 342] | 109
6 | CC1CC=C(c2ccc(=O)n(CC(=O)N3CCc4c3ccnc4C3=CCOC3)n2)CC1 (stereo not drawn) [Example 284] | 91
7 | CN(c1cnc2cnn(CC(=O)Nc3ccn4ncnc4c3)c2n1)C1CCC(F)(F)C1 (stereo not drawn) [Example 628] | 14
8 | CC1CC=C(c2ccc(=O)n(CC(=O)Nc3ccc(-n4ccnc4)nc3)n2)CC1 (stereo not drawn) [Example 377] | 134
9 | CC1CC=C(c2ccc(=O)n(CC(=O)Nc3ccc4c(cnn4C)c3)n2)CC1 (stereo not drawn) [Example 336] | 68
10 | CN(c1cnc2cnn(CC(=O)N3CCc4c(CN5CC=CC5)cccc43)c2n1)C1CC1 [Example 720] | 230
11 | CC1CC=C(c2ccc(=O)n(CC(=O)N3CCc4c(Cn5ccnc5)cccc43)n2)CC1 (stereo not drawn) [Example 286] | 848
12 | CC1CCN(c2ncc3cnn(CC(=O)Nc4ccn5ncnc5c4)c3n2)CC1 [Example 763] | 98
13 | CC1CC=C(c2ccc(=O)n(CC(=O)N3CCc4c3cccc4C(C)(C)O)n2)CC1 (stereo not drawn) [Example 277] | 210
14 | CN(c1cnc2cnn(CC(=O)Nc3ccc4cnccc4c3)c2n1)C1CC1 [Example 706] | 195

same assay, conditions: Concentration for evaluation 3 μM; HEK293 cell line stably expressing human Nav1.1

Row | SMILES | Nav1.1 current amplification rate (%)
15 | CC1CC=C(c2ccc(=O)n(CC(=O)Nc3ccc4oc(CN5CCC5)nc4c3)n2)CC1 (stereo not drawn) [Example 333] | 25
16 | CC1CC=C(c2ccc(=O)n(CC(=O)N3CCc4c(CO)cccc43)n2)CC1 (stereo not drawn) [Example 266] | 108
17 | CC1CC=C(c2ccc(=O)n(CC(=O)Nc3cc4nccn4cn3)n2)CC1 (stereo not drawn) [Example 328] | 58
18 | CC1CC=C(c2ccc(=O)n(CC(=O)N3CCc4c(C5CN(C)C5)cccc43)n2)CC1 (stereo not drawn) [Example 300] | 140
19 | CCN1CC(c2cccc3c2CCN3C(=O)Cn2nc(C3=CCC(C)CC3)ccc2=O)C1 (stereo not drawn) [Example 302] | 104
20 | COc1ccc(N2CCN(C(=O)Cn3nc(C4=CCC(C)CC4)ccc3=O)CC2)cn1 (stereo not drawn) [Example 407] | 113
21 | CC1CC=C(c2ccc(=O)n(CC(=O)N3CCc4c(-c5ccnnc5)cccc43)n2)CC1 (stereo not drawn) [Example 253] | 455
22 | COc1cnc(C)c(N2CCN(C(=O)Cn3nc(C4=CCC(C)CC4)ccc3=O)CC2)c1 (stereo not drawn) [Example 418] | 105
23 | CN(c1cnc2cnn(CC(=O)N3CC=C(c4cccnc4)CC3)c2n1)C1CC1 [Example 700] | 13

same assay, conditions: Concentration for evaluation 10 μM; HEK293 cell line stably expressing human Nav1.1

Row | SMILES | Nav1.1 current amplification rate (%)
24 | CC1CC(C)CN(c2ccc(=O)n(CC(=O)Nc3ccc(C#N)cc3)n2)C1 (stereo not drawn) [Example 14] | 9
25 | N#Cc1ccc(NC(=O)Cn2nc(N3CCCC4(CC4)C3)ccc2=O)cc1 [Example 20] | 152
26 | Cc1ccc(-c2ccc(=O)n(CC(=O)N3CCc4cnccc43)n2)cc1 [Example 159] | 32
27 | CC1CC=C(c2ccc(=O)n(CC(=O)Nc3ccc(CO)nc3)n2)CC1 (stereo not drawn) [Example 376] | 44
28 | N#Cc1ccc(NC(=O)Cn2nc(N3CCCC(O)C3)ccc2=O)cc1 (stereo not drawn) [Example 7] | 3
29 | N#Cc1ccc(NC(=O)Cn2nc(N3CCCCC3)ccc2=O)cc1 [Example 3] | 40
30 | CC1(C)CCN(c2ccc(=O)n(CC(=O)Nc3ccc(C#N)cc3)n2)C1 [Example 21] | 130
31 | N#Cc1ccc(NC(=O)Cn2nc(N3CCC4(CC3)CC(F)(F)C4)ccc2=O)cc1 [Example 32] | 60
32 | CC1CC=C(c2ccc(=O)n(CC(=O)N3CCC(c4ccccc4)CC3)n2)CC1 (stereo not drawn) [Example 256] | 36
33 | CC1(C)CC=C(c2ccc(=O)n(CC(=O)N3CCC4(CCOCC4)CC3)n2)CC1 [Example 441] | 30
34 | Cc1ccc(-c2ccc(=O)n(CC(=O)Nc3cncnc3)n2)cc1 [Example 141] | 46
35 | CC1(C)CC=C(c2ccc(=O)n(CC(=O)N3CCN(c4ccccn4)CC3)n2)CC1 [Example 439] | 87

same assay, conditions: Concentration for evaluation 50 μM; HEK293 cell line stably expressing human Nav1.1

Row | SMILES | Nav1.1 current amplification rate (%)
36 | Cc1nc(N2CCN(C(=O)Cn3nc(C4=CCC(C)CC4)ccc3=O)CC2)no1 (stereo not drawn) [Example 406] | 68
37 | COc1cccc(F)c1-c1ncc2cnn(CC(=O)Nc3ccn4ncnc4c3)c2n1 [Example 791] | 14
38 | O=C(Cn1ncc2cnc(N3CC(C4CC4)C3)nc21)Nc1ccn2ncnc2c1 [Example 782] | 64
39 | CC1CC=C(c2ccc(=O)n(CC(=O)Nc3cncc(CN(C)C)c3)n2)CC1 (stereo not drawn) [Example 365] | 32

same assay, conditions: HEK293, Concentration for evaluation 1 μM; HEK293 cell line stably expressing human Nav1.1; read-out: Nav1.1 current amplification rate (%)

Row | SMILES | activation at 1 µM [%]
40 | Cc1ccc(-c2cnc3cnn(CC(=O)Nc4ccn5ncnc5c4)c3n2)c(F)c1 [Example 574, 2-[6-(2-Fluoro-4-methylphenyl)-1H-pyrazolo[3,4-b]pyrazin-1-yl]-N-([1,2,4]triazolo[1,5-a]pyridin-7-yl)acetamide] | 303
41 | Cc1cc(NC(=O)Cn2ncc3ncc(N4CCC5(CC5)C(F)(F)C4)nc32)cc2ncnn12 [Example 741] | 61

same assay, conditions: HEK293, Concentration for evaluation 3 μM; HEK293 cell line stably expressing human Nav1.1; read-out: Nav1.1 current amplification rate (%)

Row | SMILES | activation at 3 µM [%]
42 | O=C(Cn1ncc2ncc(C3CCC3)nc21)Nc1ccn2ncnc2c1 [Example 576, 2-(6-Cyclobutyl-1H-pyrazolo[3,4-b]pyrazin-1-yl)-N-([1,2,4]triazolo[1,5-a]pyridin-7-yl)acetamide] | 14

same assay, conditions: HEK293, concentration for evaluation 0.3 μM; HEK293 stably expressing human Nav1.1; read-out: Nav1.1 current amplification rate (%)

Row | SMILES | activation at 0.3 µM [%]
43 | CN(c1ccc2cnn(CC(=O)N3CCc4c(C5CC5)cccc43)c2n1)C1CC1 [Example 887] | 173

same assay, conditions: HEK293, concentration for evaluation 1 μM; HEK293 stably expressing human Nav1.1; read-out: Nav1.1 current amplification rate (%)

Row | SMILES | activation at 1 µM [%]
44 | CC1CC=C(c2ccc3cnn(CC(=O)Nc4ccc5ocnc5c4)c3n2)CC1 (stereo not drawn) [Example 883] | 164
45 | N#Cc1ccc(NC(=O)Cn2ncc3ccc(N4CCC5(CC5)C(F)(F)C4)nc32)cn1 [Example 890] | 68

same assay, conditions: HEK293, concentration for evaluation 10 μM; HEK293 stably expressing human Nav1.1; read-out: Nav1.1 current amplification rate (%)

Row | SMILES | activation at 10 µM [%]
46 | CC1CC=C(c2ccc3cnn(CC(=O)Nc4ccn5ccnc5c4)c3c2)CC1 (stereo not drawn) [Example 894] | 151

same assay, conditions: concentration for evaluation 1 μM; HEK293 stably expressing human Nav1.1

Row | SMILES | Nav1.1 current amplification rate (%)
47 | CN(c1ncc2cnn(CC(=O)Nc3ccn4ncnc4c3)c2n1)C1CCC1 [Example 797] | 66
48 | O=C(Cn1ncc2cnc(C3=CCC(F)(F)CC3)nc21)Nc1ccc2cncnc2c1 [Example 810] | 86
49 | O=C(Cn1ncc2ccc(-c3ccc(F)cc3)nc21)Nc1ccn2ccnc2c1 [Example 866] | 16
50 | CC1CC=C(c2cnc3cnn(CC(=O)Nc4ccn5ncnc5c4)c3n2)CC1 (stereo not drawn) [Example 896, 2-[6-(4-methylcyclohex-1-en-1-yl)-1H-pyrazolo[3,4-b]pyrazin-1-yl]-N-([1,2,4]triazolo[1,5-a]pyridin-7-yl)acetamide] | 241
51 | O=C(Cn1ncc2cnc(N3CCC4(CC4)C(F)(F)C3)nc21)Nc1cccnc1 [Example 826] | 31
